Experimental findings from ChEMBL document CHEMBL5214936, “Synthesis and evaluation of glycosylated quercetin to enhance neuroprotective effects on cerebral ischemia-reperfusion” (Bioorg Med Chem, 2022) are described below.

Data set [1] can be described thus: n-Octanol-water partition coefficient, logP of the compound at 1 mg and measured after 2 hrs by HPLC analysis. It is filed as physicochemical.
Data set [2] can be described thus: Stability of compound in phosphate buffer assessed as parent compound remaining after 48 hrs by HPLC analysis. It is filed as physicochemical. Particulars: read-out: Stability.
Data set [3] relates to PC-12. Put plainly: Cytotoxicity against rat PC-12 cells assessed as inhibition of cell viability at 2.5 to 50 uM incubated for 24 hrs by MTT assay. It is filed as toxicity, cell-based. Particulars: pc-12, 24 h, dose 2.5-50 µM.
Data set [4] can be described thus: Cytotoxicity against mouse BEND3 cells assessed as inhibition of cell viability at 2.5 to 50 uM incubated for 24 hrs by MTT assay. Conditions: dose 2.5-50 µM, read-out: Activity. The format is toxicity, cell-based.
In data set [5] the test system is PC-12. Put plainly: Neuroprotective activity against H2O2-induced cytotoxicity in rat PC12 cells assessed as increase in cell viability at 2.5 to 100 uM preincubated for 2 hrs followed by H2O2 stimulation and measured after 2 hrs by MTT assay. The format is functional, cell-based. Particulars: dose 2.5-100 µM. (Tetrazolium assays rely on reduction of a dye to a coloured formazan, in cell work by metabolically active cells.)

Data set [6] concerns PC-12. Nature of the data set: Neuroprotective activity in rat PC12 cells assessed as reduction in H2O2-induced ROS generation at 20 to 100 uM preincubated for 2 hrs followed by H2O2 stimulation and measured after 2 hrs by DCFH-DA staining based fluorescence microscopic analysis. The format is functional, cell-based. Conditions: dose 20-100 µM.
The subject of data set [7] is PC-12. Put plainly: Antioxidant activity in rat PC12 cells assessed as reduction in H2O2-induced ROS level at 20 to 100 uM preincubated for 2 hrs followed by H2O2 stimulation and measured after 2 hrs by DCFH-DA staining based fow cytometry. It is filed as functional. Details: scale not given: the % may be the effect or the level left. Conditions: dose 20-100 µM.
The test system of data set [8] is Rattus norvegicus. Nature of the data set: Neuroprotective activity against middle cerebral artery occlusion induced cerebral ischemia reperfusion rat model assessed infarct volume volume at 10 mg/kg, ip preincubated for 0.5 hrs followed by reperfusion and measured after 24 hrs by TTC staining based assay relative to control. It is filed as functional, organism-based.

The subject of data set [9] is Rattus norvegicus. Put plainly: Neuroprotective activity against middle cerebral artery occlusion induced cerebral ischemia reperfusion rat model assessed decrease in morphological changes in brain at 10 mg/kg, ip preincubated for 0.5 hrs followed by reperfusion and measured after 24 hrs by hematoxylin and eosin staining based microscopy. It is filed as functional, organism-based.

Data set [10] has as its system Rattus norvegicus. Put plainly: Neuroprotective activity against middle cerebral artery occlusion induced cerebral ischemia reperfusion rat model assessed decrease in neuronal loss in brain at 10 mg/kg, ip preincubated for 0.5 hrs followed by reperfusion and measured after 24 hrs by hematoxylin and eosin staining based microscopy. It is filed as functional, organism-based.

Data set [11] has as its system Rattus norvegicus. Nature of the data set: Neuroprotective activity against middle cerebral artery occlusion induced cerebral ischemia reperfusion rat model assessed as decrease in brain SOD level at 10 mg/kg, ip preincubated for 0.5 hrs followed by reperfusion and measured after 24 hrs. It is filed as functional, organism-based.
Data set [12] deals with Rattus norvegicus. Put plainly: Neuroprotective activity against middle cerebral artery occlusion induced cerebral ischemia reperfusion rat model assessed as decrease in brain MDA level at 10 mg/kg, ip preincubated for 0.5 hrs followed by reperfusion and measured after 24 hrs. The format is functional, organism-based.
The test system of data set [13] is Rattus norvegicus. Nature of the data set: Neuroprotective activity against middle cerebral artery occlusion induced cerebral ischemia reperfusion rat model assessed as increase in brain GSH level at 10 mg/kg, ip preincubated for 0.5 hrs followed by reperfusion and measured after 24 hrs. The format is functional, organism-based.
Data set [14] concerns PC-12. Nature of the data set: Cytotoxicity against rat PC-12 cells assessed as inhibition of cell viability at 20 to 50 uM incubated for 24 hrs by MTT assay. The format is toxicity, cell-based. Conditions: pc-12, 24 h, dose 20-50 µM.
The nature of data set [15]: Cytotoxicity against mouse BEND3 cells assessed as inhibition of cell viability at 20 to 50 uM incubated for 24 hrs by MTT assay. It is filed as toxicity, cell-based. Particulars: bend3, 24 h, dose 20-50 µM.

What is called logP is the decadic logarithm of the partition coefficient of the neutral form, usually between octanol and water.

Active and inactive are the calls of the source. The rule behind the calls is not given here.

As to `O=c1c(O)c(-c2ccc(O)c(O)c2)oc2cc(OCc3cn(C[C@H]4O[C@@H](O)[C@H](O)[C@@H](O)[C@@H]4O)nn3)cc(O)c12`, the logP at 2 h in data set [1] was -0.23. For the same compound, the remaining at 48 h in [2] came out at 73.2%. For the same compound, the Activity in the data set on PC-12 [3] is reported as above 80%; in the data set on PC-12 [7], 15.2%. Further, the inhibition at 24 h, up to 50 µM in [4] is above 80%. The outcome with PC-12 [5], in the data set with PC-12 [6], in the data set on Rattus norvegicus [8], in the data set with Rattus norvegicus [9], in the data set with Rattus norvegicus [10] and with Rattus norvegicus [11] was Active. The outcome in the data set with Rattus norvegicus [12] and with Rattus norvegicus [13] was Active.

`O=c1c(O)c(-c2ccc(O)c(OCc3cn(C[C@H]4O[C@@H](O)[C@H](O)[C@@H](O)[C@@H]4O)nn3)c2)oc2cc(OCc3cn(C[C@H]4O[C@@H](O)[C@H](O)[C@@H](O)[C@@H]4O)nn3)cc(O)c12` displayed a lipophilicity (logP) at 2 h in [1] of -1.12. In addition, in [2], the remaining at 48 h came out at 81.5%. The Activity is given as above 80% with PC-12 [3] and 5.06% in the data set with PC-12 [7]. The inhibition at 24 h, up to 50 µM in data set [4] was above 80%. Also, the outcome in the data set on PC-12 [5], in the data set on PC-12 [6], with Rattus norvegicus [8], in the data set on Rattus norvegicus [9], in the data set on Rattus norvegicus [10] and in the data set on Rattus norvegicus [11] was Active. The result in the data set on Rattus norvegicus [12] and in the data set with Rattus norvegicus [13] was Active.

As to `O=c1c(O)c(-c2ccc(O)c(O)c2)oc2cc(O)cc(O)c12` [QUERCETIN], the logP at 2 h in data set [1] amounted to 1.38. Besides, in [2], the remaining at 48 h came to 11.2%. Also, the values for the Activity entry (with PC-12 [14]; in data set [15]; in the data set on PC-12 [7]) were “Toxic”, “Toxic” and 21.56%, respectively. Besides, the outcome in the data set on PC-12 [5], in the data set on PC-12 [6], in the data set on Rattus norvegicus [8], in the data set with Rattus norvegicus [9], in the data set on Rattus norvegicus [10] and in the data set on Rattus norvegicus [11] was Active. Also, the result in the data set with Rattus norvegicus [12] and in the data set with Rattus norvegicus [13] was Active.
